The subject of experiment [1] is hD2 and hD3 dopamine receptors expressed in HEK-293 cells. Description: D2 and D3 dopamine receptor combination experiments. In kind it is binding, human. The settings on record: radioligand about Kd for hD3, 37°C 30 min, (+)-butaclamol nonspecific.
The target in experiment [2] is rat D3 dopamine receptors (Rattus norvegicus, UniProt P19020). Description: competitive radioligand binding with [3H]LS-3-134, rD3 HEK-293.
Another experiment concerns the target rat striatal tissue (Rattus norvegicus, UniProt P19020). Nature of the experiment: competitive radioligand binding with [3H]LS-3-134, rat striatal tissue. The settings on record: Ki values [^3H]LS-3-134 rat striatum, mean ± S.E.M., n ≥ 3, Cheng & Prusoff.
The subject of another experiment is D3 dopamine receptor. To be noted: forskolin-dependent adenylyl cyclase; ref Tu et al., 2011a; cited from earlier work.
The test system of a further experiment is D2 dopamine receptor. The settings on record: forskolin-dependent adenylyl cyclase; ref Tu et al., 2011a; cited from earlier work.
The target in experiment [3] is T1, human D2 dopamine receptors (Homo sapiens, UniProt P14416). The settings on record: ratio of Ki values of Table I.
T1 sequence (P14416 whole entry): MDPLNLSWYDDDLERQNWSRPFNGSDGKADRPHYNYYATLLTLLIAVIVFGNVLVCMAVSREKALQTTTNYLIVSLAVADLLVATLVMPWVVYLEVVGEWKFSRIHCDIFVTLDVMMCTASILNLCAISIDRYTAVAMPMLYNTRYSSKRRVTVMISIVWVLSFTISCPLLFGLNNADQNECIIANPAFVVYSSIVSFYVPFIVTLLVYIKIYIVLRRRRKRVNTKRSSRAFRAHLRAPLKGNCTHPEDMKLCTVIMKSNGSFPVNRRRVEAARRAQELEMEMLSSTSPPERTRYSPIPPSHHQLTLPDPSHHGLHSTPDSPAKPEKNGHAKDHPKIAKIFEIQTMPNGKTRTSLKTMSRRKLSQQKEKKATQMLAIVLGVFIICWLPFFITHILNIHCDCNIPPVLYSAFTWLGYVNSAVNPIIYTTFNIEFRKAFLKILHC
Experiment [4] addresses T1, human D2 dopamine receptors. The settings on record: ref Vangveravong et al., 2006; Luedtke et al., 2012; cited from earlier work.
The target of experiment [5] is T2, human D3 dopamine receptors (Homo sapiens, UniProt P35462). Nature of the experiment: competitive radioligand binding with [3H]LS-3-134, hD3 HEK-293.
T2 sequence (P35462 whole entry): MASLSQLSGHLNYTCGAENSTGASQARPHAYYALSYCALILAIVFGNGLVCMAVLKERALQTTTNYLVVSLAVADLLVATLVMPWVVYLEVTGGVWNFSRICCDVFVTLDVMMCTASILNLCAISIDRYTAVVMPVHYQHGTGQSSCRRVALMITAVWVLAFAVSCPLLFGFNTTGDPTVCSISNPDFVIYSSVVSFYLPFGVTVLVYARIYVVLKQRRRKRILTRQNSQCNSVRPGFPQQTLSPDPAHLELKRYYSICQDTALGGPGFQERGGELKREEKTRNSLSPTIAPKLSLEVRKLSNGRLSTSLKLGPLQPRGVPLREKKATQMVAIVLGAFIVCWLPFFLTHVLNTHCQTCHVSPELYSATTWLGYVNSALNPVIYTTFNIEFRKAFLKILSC
Experiment [6] addresses T2, human D3 dopamine receptors. To be noted: ref Tu et al., 2011a; cited from earlier work.
Experiment [7] shares this target. Description: [125I]IABN radioligand binding, human D3 receptors stably expressed in HEK cells. The settings on record: ratio of Ki values of Table I.
A further experiment has as its system D2 and D3 receptors. The settings on record: humans; ref Tziortzi et al., 2011; Payer et al., 2014a,b; cited from earlier work.
[8] abbreviates: Ki values [^3H]LS-3-134 rD3-HEK 293, mean ± S.E.M., n ≥ 3, Cheng & Prusoff.

Each structure is given as a SMILES string. Structures can show the parent of a compound that is named as a salt. Where two headings read alike, the source gives them in different places.

Chain of rat striatal tissue (P19020 whole entry): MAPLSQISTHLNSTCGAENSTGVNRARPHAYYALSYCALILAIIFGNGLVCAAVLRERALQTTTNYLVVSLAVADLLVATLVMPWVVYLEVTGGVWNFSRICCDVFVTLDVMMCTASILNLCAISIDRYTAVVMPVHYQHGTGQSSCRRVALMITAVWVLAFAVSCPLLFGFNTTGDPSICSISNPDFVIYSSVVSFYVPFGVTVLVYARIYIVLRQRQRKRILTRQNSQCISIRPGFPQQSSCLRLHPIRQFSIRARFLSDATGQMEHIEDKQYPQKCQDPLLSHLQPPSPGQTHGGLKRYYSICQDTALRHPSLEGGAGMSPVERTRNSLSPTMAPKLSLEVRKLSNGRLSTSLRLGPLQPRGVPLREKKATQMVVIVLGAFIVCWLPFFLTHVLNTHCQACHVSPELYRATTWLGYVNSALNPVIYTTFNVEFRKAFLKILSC
Chain of rat D3 dopamine receptors (P19020 whole entry): as above

For the compound `CCN1CCC[C@H]1CNC(=O)c1c(O)c(Cl)cc(Cl)c1OC` (racemic) [[^3H]raclopride], in [1], the “specific binding on adding increasing amounts of hD2 membranes to constant hD3” value is given as “increased specific binding was observed”.
With `CCc1cc(Cl)c(OC)c(C(=O)NC[C@@H]2CCCN2CC)c1O` [Eticlopride, S-(−)-3-chloro-5-ethyl-N-[(1-ethyl-2-pyrrolidinyl)methyl]-6-hydroxy-2-methoxybenzamide hydrochloride], the values for the inhibitory constant (Ki) (in [2] (setting [8]); at rat striatal tissue) were 0.12 ± 0.05 nM and 0.37 ± 0.09 nM, respectively.
For the compound `O=C(NCCCCN1CCN(c2ccccc2OCCF)CC1)c1ccc(-c2ccsc2)cc1` [LS-3-134], in the experiment with D3 dopamine receptor, the “% of full agonist activity at D3” value is reported as 35%. Also, the “% of full agonist activity at D2” value in the experiment with D2 dopamine receptor was 29%.
Consider `COc1ccc2[nH]cc(CN3CCC(O)(c4ccc(SC)cc4)CC3)c2c1` [SV 293, 1-((5-methoxy-1H-indol-3-yl)methyl)-4-(4-(methylthio)phenyl)piperidin-4-ol], for which the inhibition constant (Ki) turned out to be 892 ± 44.2 nM in experiment [2] (setting [8]); 323 ± 49.1 nM on rat striatal tissue; 324 ± 39.2 nM in experiment [5] (Ki values [^3H]LS-3-134 hD3-HEK 293, mean ± S.E.M., n ≥ 3, Cheng & Prusoff). Besides, the “Binding Selectivity D3:D2” value in [3] is given as 105. Also, the “Binding Selectivity D4:D2” value in experiment [3] is reported as 103. The “selectivity for hD2 dopamine receptors compared to hD3” value in [4] was 100 fold.
With `COc1ccccc1N1CCN(CCCCNC(=O)c2ccc(N(C)C)cc2)CC1` [WC 10, 4-(dimethylamino)-N-(4-(4-(2-methoxyphenyl)piperazin-1-yl)butyl)benzamide], the values for the Ki (in experiment [2]; at rat striatal tissue; in experiment [5]) were 5.71 ± 0.81 nM, 2.46 ± 0.19 nM and 1.25 ± 0.36 nM, respectively. Further, the “D3 vs. D2 dopamine receptor subtype binding selectivity” value in experiment [6] is reported as 43 fold. Besides, in experiment [7], the “Binding Selectivity D2:D3” value turned out to be 43. In experiment [7], the “Binding Selectivity D4:D3” value is recorded as 1120.
For `CCCN1CCO[C@@H]2c3cc(O)ccc3CC[C@H]21` [[^11C](+)-PHNO], the “receptors labelled in PET imaging” value with D2 and D3 receptors is “label both D2 and D3 receptors”.
For the compound `COc1cc([125I])cc(C(=O)NC2CC3CCCC(C2)N3Cc2ccccc2)c1OC` (stereo not shown) [[^125I]IABN], the “specific binding on adding increasing amounts of hD2 membranes to constant hD3” value in experiment [1] is “increased specific binding was observed”.

These data come from publication PMC4222986 (Journal of neurochemistry, 2014).
